# What was measured:
# [1] = test system: rat hind paw withdrawal (nociception); assay: Von Frey fiber behavioral test after epidural glutamate infusion; type: in vivo; conditions: epidural infusion 2.0-0.0002 mM for 72 hours; most prominent on day 3, also day 1
# Method: Behavioral experiments have been completed at a wider range of concentrations. Rats are infused with epludial glutamate at concentrations of 2.0, 0.2, 0.02, 0.002 and 0.0002 mM for 72 hours (3 days). Von Frey fiber examinations were performed on left and right hind paws 24 hours before infusion and then 24, 72, and 144 hours after onset of glutamate infusion. The experimenter was blinded as to which infusate was used. Contralateral to ipsilateral differences were analyzed with respect to concentration of glutamate infusion and hours post-procedure. […] The response was most significant at the 0.02 mM concentration but present at 0.002 and 0.2 mM concentrations. […]
# Behavioral Tests—The von Frey Fiber mechanical allodynia assay is performed 24 hours preoperatively and 24, 72, and 144 hours postoperatively. […] Starting with 0.6 grams of force and working up to 1, 1.4, 2, 4, 6, 8, 10, 15, and finally 26, each paw's response is recorded. […]
# The protocol has the experimenter tap the bottom surface of the paw with one fiber at a time for six seconds each. […] If a response is not recognized, then the next fiber (one that elicited 1.0 grams of force) is applied, and so on in increasing order of force until a paw withdrawal response was recorded. After the initial response is recorded, the experimenter completes the testing procedure by testing the same paw with fibers in descending order of force. […]
# [2] = test system: AMPA, NMDA and kainate receptors, dorsal horn laminae I-III; assay: Immunohistochemistry and densitometry of dorsal horn glutamate receptor expression after epidural glutamate infusion; type: in vivo, rat
# Method: Immunohistochemical studies show expression of dorsal horn glutamate receptors in painful conditions involving the lower extremity in the rat. A relatively high concentration (2 mmol/L) of glutamate was infused for 72 hours (same infusion time period as in previous experiments) and densitometry was performed at 40× AMPA, NMDA and kainate for receptor expression at dorsal horn laminae I-III bilaterally, at spinal cord levels where the dorsal root ganglion input would enter the spinal cord dorsal horn, to determine whether receptor expression was increased. The microscopist was blinded to the nature of the sample.
# [3] = 2 mmol/L glutamate, 72 hours, p<0.01
structure (smiles),measurement,setting,value
N[C@@H](CCC(=O)O)C(=O)O [glutamate],von Frey contralateral to ipsilateral difference (hypersensitivity),[1],significant hypersensitivity postoperatively
same,"AMPA, NMDA and kainate receptor expression versus saline-infused controls","[2]; 2 mmol/L glutamate infused for 72 hours, dorsal horn laminae I-III, two-tailed T test",upregulation of expression over saline-infused controls
same,AMPA receptor expression ipsilateral versus contralateral,[2]; [3],upregulation of receptor expression ipsilateral to the side of infusion
same,NMDA receptor expression ipsilateral versus contralateral,[2]; [3],upregulation of receptor expression ipsilateral to the side of infusion
same,kainate receptor expression ipsilateral versus contralateral,"[2]; 2 mmol/L glutamate, 72 hours, p<0.05",upregulation of receptor expression ipsilateral to the side of infusion

# From patent US20040138204A1, “Compositions and methods for pain reduction” (priority 2002, published 2004)
